Target: GCN2 kinase (Homo sapiens, UniProt Q9P2K8)
Assay: GCN2 enzyme inhibition assay (Transcreener ADP2 fluorescence polarization)
Format: biochemical
Conditions: Enzyme activity for compounds of Formula IV; Ki(app), 280 μM ATP, 25° C.
How it was run: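 FP detection of ADP (antibody plus Alexa633 tracer) after a 1 h, 25 °C kinase reaction. Enzyme 4 nM, ATP 280 μM, (RS)7 peptide 200 μM, Tris pH 7.5 buffer with MgCl2 and DTT. Percent inhibition fitted by non-linear tight-binding algorithm for IC50 and Ki(app).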

Chain of GCN2 kinase (Q9P2K8 whole entry): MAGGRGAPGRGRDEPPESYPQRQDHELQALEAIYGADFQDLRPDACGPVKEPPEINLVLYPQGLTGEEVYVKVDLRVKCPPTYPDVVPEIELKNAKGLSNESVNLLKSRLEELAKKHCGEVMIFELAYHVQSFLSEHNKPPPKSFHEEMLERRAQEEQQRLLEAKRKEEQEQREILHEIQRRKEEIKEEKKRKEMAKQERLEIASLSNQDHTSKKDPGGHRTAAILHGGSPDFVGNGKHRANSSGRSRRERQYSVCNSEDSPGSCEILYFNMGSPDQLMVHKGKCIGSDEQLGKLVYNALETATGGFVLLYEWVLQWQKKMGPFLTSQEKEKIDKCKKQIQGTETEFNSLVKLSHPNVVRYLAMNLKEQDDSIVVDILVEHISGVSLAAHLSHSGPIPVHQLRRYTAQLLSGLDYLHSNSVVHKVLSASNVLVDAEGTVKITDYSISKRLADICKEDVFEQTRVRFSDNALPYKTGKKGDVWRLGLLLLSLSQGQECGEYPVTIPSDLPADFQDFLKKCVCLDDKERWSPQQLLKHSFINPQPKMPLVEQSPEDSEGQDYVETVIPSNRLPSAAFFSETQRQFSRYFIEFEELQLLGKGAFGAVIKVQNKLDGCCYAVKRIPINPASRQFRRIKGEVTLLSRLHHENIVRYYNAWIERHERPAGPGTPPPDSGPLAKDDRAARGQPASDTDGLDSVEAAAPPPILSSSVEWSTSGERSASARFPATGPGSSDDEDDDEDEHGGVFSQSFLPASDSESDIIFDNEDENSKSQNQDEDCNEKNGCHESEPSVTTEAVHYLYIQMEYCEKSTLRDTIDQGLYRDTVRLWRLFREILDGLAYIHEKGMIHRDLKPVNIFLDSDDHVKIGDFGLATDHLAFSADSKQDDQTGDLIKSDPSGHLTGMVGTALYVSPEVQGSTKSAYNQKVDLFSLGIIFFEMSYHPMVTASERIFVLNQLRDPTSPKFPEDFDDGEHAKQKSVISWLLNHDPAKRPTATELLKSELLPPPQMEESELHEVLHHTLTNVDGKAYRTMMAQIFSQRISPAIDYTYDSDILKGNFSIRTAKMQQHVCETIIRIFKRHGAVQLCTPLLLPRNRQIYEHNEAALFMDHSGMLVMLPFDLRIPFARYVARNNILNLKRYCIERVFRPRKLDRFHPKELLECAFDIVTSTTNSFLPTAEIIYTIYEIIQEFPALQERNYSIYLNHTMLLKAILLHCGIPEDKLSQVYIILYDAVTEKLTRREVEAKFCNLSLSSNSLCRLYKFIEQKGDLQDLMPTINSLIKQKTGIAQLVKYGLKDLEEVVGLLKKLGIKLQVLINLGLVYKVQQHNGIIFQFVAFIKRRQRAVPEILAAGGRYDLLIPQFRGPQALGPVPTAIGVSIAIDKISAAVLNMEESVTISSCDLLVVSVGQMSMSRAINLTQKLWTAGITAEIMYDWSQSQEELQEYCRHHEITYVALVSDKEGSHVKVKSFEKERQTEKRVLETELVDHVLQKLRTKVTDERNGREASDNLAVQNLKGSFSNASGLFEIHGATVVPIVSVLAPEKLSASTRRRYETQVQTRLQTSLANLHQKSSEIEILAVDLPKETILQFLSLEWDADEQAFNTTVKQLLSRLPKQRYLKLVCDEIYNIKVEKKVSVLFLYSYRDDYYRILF

SMILES	Ki [nM]
CC1CN(c2ccnc(-c3cnc4cnc(C(F)(F)F)cn34)n2)C(C)C(c2cn[nH]c2)N1 (single isomer, unassigned) [IV-223, 3-(4-(2,5-Dimethyl-3-(1H-pyrazol-4-yl)piperazin-1-yl)pyrimidin-2-yl)-6-(trifluoromethyl)imidazo[1,2-a]pyrazine]	100 to 1000
CC1CN(c2ccnc(-c3cnc4cnc(Cl)cn34)n2)C(C)C(c2cn[nH]c2)N1 (single isomer, unassigned) [IV-246, 6-Chloro-3-(4-(2,5-dimethyl-3-(1H-pyrazol-4-yl)piperazin-1-yl)pyrimidin-2-yl)imidazo[1,2-a]pyrazine]	100 to 1000
NC(=O)c1cn2c(-c3nccc(N4CCCC(CO)C4)n3)cnc2cn1 (centres unmarked) [IV-242, 3-(4-(3-(Hydroxymethyl)piperidin-1-yl)pyrimidin-2-yl)imidazo[1,2-a]pyrazine-6-carboxamide]	10 to 100
C[C@H]1[C@H](c2cn[nH]c2)OCCN1c1ccnc(-c2cnc3cnc(C#N)cn23)n1 (racemic) [IV-281, Trans-3-(4-(3-Methyl-2-(1H-pyrazol-4-yl)morpholino)pyrimidin-2-yl)imidazo[1,2-a]pyrazine-6-carbonitrile]	10 to 100
CC1(C)CN(c2ccnc(-c3cnc4cnc(C(F)(F)F)cn34)n2)CC(c2cn[nH]c2)N1 (centres unmarked) [IV-327, 3-(4-(3,3-Dimethyl-5-(1H-pyrazol-4-yl)piperazin-1-yl)pyrimidin-2-yl)-6-(trifluoromethyl)imidazo[1,2-a]pyrazine]	10 to 100
NC(=O)c1cn2c(-c3nccc(N4CCCCC4CO)n3)cnc2cn1 (centres unmarked) [IV-241, 3-(4-(2-(Hydroxymethyl)piperidin-1-yl)pyrimidin-2-yl)imidazo[1,2-a]pyrazine-6-carboxamide]	100 to 1000
CC1C(c2cn[nH]c2)OCCN1c1ccnc(-c2cnc3cnc(C(F)(F)F)cn23)n1 (centres unmarked) [IV-218, 3-Methyl-2-(1H-pyrazol-4-yl)-4-(2-(6-(trifluoromethyl)imidazo[1,2-a]pyrazin-3-yl)pyrimidin-4-yl)morpholine]	10 to 100

Results, then the compound that gave them:

Ki [nM]	SMILES
> 1000	O=C(Nc1ccccn1)[C@H]1CCCN(c2ccnc(-c3cnc4cnc(C(F)(F)F)cn34)n2)C1 [IV-740]
100 to 1000	O=C1CN(c2ccnc(-c3cnc4cnc(C(F)(F)F)cn34)n2)CC2CCCCN12 (centres unmarked) [IV-571, 2-(2-(6-(Trifluoromethyl)imidazo[1,2-a]pyrazin-3-yl)pyrimidin-4-yl)octahydro-4H-pyrido[1,2-a]pyrazin-4-one]
100 to 1000	C[C@H]1NCCN(c2ccnc(-c3cnc4cnc(C5CC5)cn34)n2)[C@H]1c1cn[nH]c1 (relative stereo) [IV-412, Cis-6-Cyclopropyl-3-(4-(3-methyl-2-(1H-pyrazol-4-yl)piperazin-1-yl)pyrimidin-2-yl)imidazo[1,2-a]pyrazine]
> 1000	CS(C)(=O)=NCC(=O)N[C@H]1CCCN(c2ccnc(-c3cnc4cnc(C(F)(F)F)cn34)n2)C1 [IV-747]
> 1000	CS(=O)(=O)N=S1(=O)CCN(c2ccnc(-c3cnc4cnc(C(F)(F)F)cn34)n2)CC1 [IV-727]
100 to 1000	COCC1CN(c2ccnc(-c3cnc4cnc(C(F)(F)F)cn34)n2)CC(C)O1 (centres unmarked) [IV-587, 2-(Methoxymethyl)-6-methyl-4-(2-(6-(trifluoromethyl)imidazo[1,2-a]pyrazin-3-yl)pyrimidin-4-yl)morpholine]
100 to 1000	N#CCC1CCCN(c2ccnc(-c3cnc4cnc(C(F)(F)F)cn34)n2)C1 (centres unmarked) [IV-514, 2-(1-(2-(6-(Trifluoromethyl)imidazo[1,2-a]pyrazin-3-yl)pyrimidin-4-yl)piperidin-3-yl)acetonitrile]
10 to 100	CC1CN(c2ccnc(-c3cnc4cnc(C(F)(F)F)cn34)n2)C(C)C(c2c[nH]c(C(F)(F)F)n2)N1 (centres unmarked) [IV-666, 3-(4-(2,5-Dimethyl-3-(2-(trifluoromethyl)-1H-imidazol-4-yl)piperazin-1-yl)pyrimidin-2-yl)-6-(trifluoromethyl)imidazo[1,2-a]pyrazine]
100 to 1000	O=CNC1CCCN(c2ccnc(-c3cnc4cnc(C(F)(F)F)cn34)n2)C1 (centres unmarked) [IV-332, N-(1-(2-(6-(trifluoromethyl)imidazo[1,2-a]pyrazin-3-yl)pyrimidin-4-yl)piperidin-3-yl)formamide]
100 to 1000	C[C@@H]1[C@H](c2cn[nH]c2)N(c2ccnc(-c3cnc4cnc(Br)cn34)n2)CCN1C (relative stereo) [IV-393, Cis-6-Bromo-3-(4-(3,4-dimethyl-2-(1H-pyrazol-4-yl)piperazin-1-yl)pyrimidin-2-yl)imidazo[1,2-a]pyrazine]
100 to 1000	FC(F)(F)c1cn2c(-c3nccc(N4CCO[C@H](c5ccccn5)C4)n3)cnc2cn1 [IV-713]
100 to 1000	FC(F)(F)c1cn2c(-c3nccc(N4CCCC(C5CCOC5)C4)n3)cnc2cn1 (single isomer, unassigned) [IV-544, 3-(4-(3-(Tetrahydrofuran-3-yl)piperidin-1-yl)pyrimidin-2-yl)-6-(trifluoromethyl)imidazo[1,2-a]pyrazine]
100 to 1000	NC(=O)CN1CCCN(c2ccnc(-c3cnc4cnc(C(F)(F)F)cn34)n2)CC1 [IV-566, 2-(4-(2-(6-(Trifluoromethyl)imidazo[1,2-a]pyrazin-3-yl)pyrimidin-4-yl)-1,4-diazepan-1-yl)acetamide]
> 1000	O=C(N[C@H]1CCCN(c2ccnc(-c3cnc4cnc(C(F)(F)F)cn34)n2)C1)c1ccc(F)cc1F [IV-744]
100 to 1000	CS(=N)(=O)CC1CCCN(c2ccnc(-c3cnc4cnc(C(F)F)cn34)n2)C1 (single isomer, unassigned) [IV-338, ((1-(2-(6-(Difluoromethyl)imidazo[1,2-a]pyrazin-3-yl)pyrimidin-4-yl)piperidin-3-yl)methyl)(imino)(methyl)-λ^6-sulfanone]
10 to 100	FC(F)(F)c1cn2c(-c3nccc(N4CCCC(c5ncc[nH]5)C4)n3)cnc2cn1 (centres unmarked) [IV-708]
100 to 1000	OCC1CCCCN1c1ccnc(-c2cnc3cnc(C(F)(F)F)cn23)n1 (centres unmarked) [IV-440, (1-(2-(6-(Trifluoromethyl)imidazo[1,2-a]pyrazin-3-yl)pyrimidin-4-yl)piperidin-2-yl)methanol]
100 to 1000	CC(C)(C)C1OCN2CCN(c3ccnc(-c4cnc5cnc(C(F)(F)F)cn45)n3)CC12 (centres unmarked) [IV-506, 1-(tert-Butyl)-7-(2-(6-(trifluoromethyl)imidazo[1,2-a]pyrazin-3-yl)pyrimidin-4-yl)hexahydro-3H-oxazolo[3,4-a]pyrazine]
> 1000	Cn1cc(NC(=O)[C@H]2CCCN(c3ccnc(-c4cnc5cnc(C(F)(F)F)cn45)n3)C2)cn1 [IV-739]

Same assay, conditions: compounds of Formula II; 280 μM ATP, 4 nM GCN2 kinase

Ki [nM]	SMILES
10 to 1000	CC1CCC(NS(C)(=O)=O)CN1c1cc(-c2cnc3ccc(C(F)F)nn23)ncn1 (centres unmarked) [II-551, N-(1-(6-(6-(Difluoromethyl)imidazo[1,2-b]pyridazin-3-yl)pyrimidin-4-yl)-6-methylpiperidin-3-yl)methanesulfonamide]
< 10	CC1CC(CNS(C)(=O)=O)CN(c2cc(-c3cnc4ccc(C(F)F)nn34)ncn2)C1C (centres unmarked) [II-591, N-((1-(6-(6-(Difluoromethyl)imidazo[1,2-b]pyridazin-3-yl)pyrimidin-4-yl)-5,6-dimethylpiperidin-3-yl)methyl)methanesulfonamide]
10 to 1000	N#CC1CCCN(c2cc(-c3cnc4ccc(C(F)F)nn34)ncn2)C1 (centres unmarked) [II-532, 1-(6-(6-(Difluoromethyl)imidazo[1,2-b]pyridazin-3-yl)pyrimidin-4-yl)piperidine-3-carbonitrile]
10 to 1000	CS(C)(=O)=NCC1CCCN(c2cc(-c3cnc4ccc(C(F)F)nn34)ncn2)C1 (centres unmarked) [II-573, (((1-(6-(6-(Difluoromethyl)imidazo[1,2-b]pyridazin-3-yl)pyrimidin-4-yl)piperidin-3-yl)methyl)imino)dimethyl-λ^6-sulfanone]
10 to 1000	N#CC1CCCN(c2cc(-c3cnc4ccc(C(F)(F)F)nn34)ncn2)C1 (centres unmarked) [II-534, 1-(6-(6-(Trifluoromethyl)imidazo[1,2-b]pyridazin-3-yl)pyrimidin-4-yl)piperidine-3-carbonitrile]
10 to 1000	Cc1noc([C@@H]2CN(c3cc(-c4cnc5ccc(C(F)(F)F)nn45)ccn3)C[C@@H](C)O2)n1 [II-742]
10 to 1000	O=C(O)[C@@H]1CCCN(c2cc(-c3cnc4ccc(C(F)F)nn34)ncn2)C1 [II-508, (R)-1-(6-(6-(Difluoromethyl)imidazo[1,2-b]pyridazin-3-yl)pyrimidin-4-yl)piperidine-3-carboxylic acid]
> 1000	CC1CC(P(C)(C)=O)CN(c2cc(-c3cnc4ccc(C(F)(F)F)nn34)ncn2)C1 (centres unmarked) [II-712, 3-[6-(3-Dimethylphosphoryl-5-methyl-1-piperidyl)pyrimidin-4-yl]-6-(trifluoromethyl)imidazo[1,2-b]pyridazine]
< 10	CS(=O)(=O)NCC1CN(c2cc(-c3cnc4ccc(C(F)F)nn34)ncn2)C[C@@H]2CCCN12 (stereo partly drawn) [II-560, N-(((8aS)-2-(6-(6-(Difluoromethyl)imidazo[1,2-b]pyridazin-3-yl)pyrimidin-4-yl)octahydropyrrolo[1,2-a]pyrazin-4-yl)methyl)methanesulfonamide]
10 to 1000	CC1C(N=S(C)(C)=O)CCCN1c1cc(-c2cnc3ccc(C(F)F)nn23)ncn1 (centres unmarked) [II-579, ((1-(6-(6-(Difluoromethyl)imidazo[1,2-b]pyridazin-3-yl)pyrimidin-4-yl)-2-methylpiperidin-3-yl)imino)dimethyl-λ^6-sulfanone]

Same assay, conditions: compounds of Formula IV; 280 μM ATP, 4 nM GCN2 kinase

IC50 [nM]	SMILES
10 to 1000	C[C@H]1[C@@H](c2cn[nH]c2)N(C(=O)C2CC2)[C@@H](C)CN1c1ccnc(-c2cnc3cnc(C(F)(F)F)cn23)n1 [IV-778, cyclopropyl((2R,3S,6S)-3,6-dimethyl-2-(1H-pyrazol-4-yl)-4-(2-(6-(trifluoromethyl)imidazo[1,2-a]pyrazin-3-yl)pyrimidin-4-yl)piperazin-1-yl)methanone]
10 to 1000	Cc1n[nH]cc1[C@H]1CN(c2ccnc(-c3cnc4cnc(C(F)(F)F)cn34)n2)C[C@@H](C)O1 (stereo in doubt) [IV-762, (2R,6S)-2-methyl-6-(3-methyl-1H-pyrazol-4-yl)-4-(2-(6-(trifluoromethyl)imidazo[1,2-a]pyrazin-3-yl)pyrimidin-4-yl)morpholine]

From patent publication US10988477B2 (Merck Patent GmbH, priority 2018, dated 2021)
